The test system of series [1] is HGC-27. Description: Antitumor activity against human HGC-27 cells xenografted in BALB/c mouse assessed as tumor growth inhibition at 150 mg/kg, po bid administered for 19 days. The format is functional. To be noted: HGC-27, 456 h, time 19 day, read-out: TGI.
Series [2] can be described thus: Toxicity in BALB/c mouse xenografted with human HGC-27 cells assessed as lymphocyte level at 150 mg/kg, po bid for 19 days. The format is organism-based. To be noted: in vivo, 456 h, time 19 day. (In xenograft studies the graft and the host belong to different species.)
Series [3] can be described thus: Toxicity in BALB/c mouse xenografted with human HGC-27 cells assessed as monocyte level at 150 mg/kg, po bid for 19 days. Type of series: organism-based. To be noted: in vivo, 456 h, time 19 day.
The nature of series [4]: Toxicity in BALB/c mouse xenografted with human HGC-27 cells assessed as granulocyte level at 150 mg/kg, po bid for 19 days. Type of series: organism-based. Conditions: in vivo, 456 h, time 19 day.
Series [5] can be described thus: Toxicity in BALB/c mouse xenografted with human HGC-27 cells assessed as RBC level at 150 mg/kg, po bid for 19 days. Type of series: organism-based, Erythrocyte. Conditions: in vivo, 456 h, time 19 day.
A short description of series [6]: Toxicity in BALB/c mouse xenografted with human HGC-27 cells assessed as hematocrit level at 150 mg/kg, po bid for 19 days. The format is organism-based. Conditions: in vivo, 456 h, time 19 day.
The nature of series [7]: Toxicity in BALB/c mouse xenografted with human HGC-27 cells assessed as mean corpuscular volume at 150 mg/kg, po bid for 19 days. Type of series: organism-based. To be noted: in vivo, 456 h, time 19 day.
A short description of series [8]: Toxicity in BALB/c mouse xenografted with human HGC-27 cells assessed as red blood cell distribution width at 150 mg/kg, po bid for 19 days. The format is organism-based. Conditions: in vivo, 456 h, time 19 day.
Series [9] can be described thus: Toxicity in BALB/c mouse xenografted with human HGC-27 cells assessed as platelet level at 150 mg/kg, po bid for 19 days. Type of series: organism-based. Conditions: in vivo, 456 h, time 19 day.
Series [10] in a line: Toxicity in BALB/c mouse xenografted with human HGC-27 cells assessed as mean platelet volume at 150 mg/kg, po bid for 19 days. The format is organism-based. Conditions: in vivo, 456 h, time 19 day.
Series [11] is described as follows: Toxicity in BALB/c mouse xenografted with human HGC-27 cells assessed as platelet distribution width at 150 mg/kg, po bid for 19 days. The format is organism-based. To be noted: in vivo, 456 h, time 19 day.
The subject of series [12] is SGC-7901. Description: cells. To be noted: Homo sapiens, SGC-7901, 72 h. The format is functional, cell-based.
Description: Cytotoxicity against human SGC-7901 cells assessed as inhibition of cell growth incubated for 72 hrs by MTT assay
For series [13], the system named is AGS. Description: cells. Type of series: functional, cell-based. To be noted: Homo sapiens, 72 h.
Description: Cytotoxicity against human AGS cells assessed as inhibition of cell growth incubated for 72 hrs by MTT assay
The subject of series [14] is BGC-823. Briefly: cells. The format is functional, cell-based. Conditions: Homo sapiens, BGC-823, 72 h.
Description: Cytotoxicity against human BGC-823 cells assessed as inhibition of cell growth incubated for 72 hrs by MTT assay
The subject of series [15] is MGC-803. Description: cells. The format is functional, cell-based. To be noted: Homo sapiens, MGC-803, 72 h.
Description: Cytotoxicity against human MGC-803 cells assessed as inhibition of cell growth incubated for 72 hrs by MTT assay
Series [16] relates to HGC-27. Description: cells. Type of series: functional, cell-based. Conditions: Homo sapiens, HGC-27, 72 h.
Description: Cytotoxicity against human HGC-27 cells assessed as inhibition of cell growth incubated for 72 hrs by MTT assay
Series [17] can be described thus: in vitro. To be noted: human, GES1 cells.
Description: Cytotoxicity against human GES1 cells assessed as inhibition of cell growth incubated for 72 hrs by MTT assay
Series [18] can be described thus: in vitro. To be noted: human, WI-38 cells.
Description: Cytotoxicity against human WI-38 cells assessed as inhibition of cell growth incubated for 72 hrs by MTT assay
The subject of series [19] is HGC-27. Briefly: Antiproliferative activity against human HGC-27 cells measured after 24 hrs by […]. Conditions: HGC-27, 24 h. Type of series: functional, cell-based.

Values joined by “and” are separate entries in the source; they are usually repeats but may differ in a detail not shown here. Equal values may be shown once.

`CCCCCOC(=O)Nc1nc(=O)n([C@@H]2O[C@H](C)[C@@H](O)[C@H]2O)cc1F` [CAPECITABINE]: the inhibition in vivo at 150 mg/kg in [1] was determined as 29.9%. For the same compound, the Activity in [2] was 6.1 10^9/L and 7.45%; in [3] it was 1.75 10^9/L and 2.18%; in [4] it was 73.83 10^9/L and 90.38%; in series [5] it was 10.26 10^12/L; in series [6], 55.25%; in series [7] it was 53.73 fL. Also, the Activity was 15.63% in series [8], 799 10^9/L in series [9], 6.95 fL in series [10] and 17.93 in [11].

Broadly, the IC50 is the point on the concentration scale where inhibition reaches its midpoint. On to `O=C(NCc1ccc(NC(=O)c2ccc(F)cc2N2CCCC2)cc1)OCc1cccnc1`, for which the 50% inhibitory concentration (IC50) was 56.2 µM in series [12]; over 100 µM in series [13]; 74.5 µM in series [14]; 52.1 µM in [15]; 1.84 µM in series [16]. In addition, the half-inhibitory concentration (IC50) at 72 h in [17] and in series [18] was over 100 µM throughout.

`O=C(NCc1ccc(NC(=O)c2cc(C(F)(F)F)ccc2N2CCCC2)cc1)OCc1cccnc1`: the IC50 is over 100 µM in series [12]; over 100 µM in series [13]; over 100 µM in [14]; 42.1 µM in series [15]; 0.79 µM in series [16]. Also, the half-maximal inhibitory concentration (IC50) at 72 h in series [17] and in series [18] was over 100 µM each time.

Take `Cc1ccc(C(=O)Nc2ccc(CNC(=O)OCc3cccnc3)cc2)c(N2CCCC2)c1`: the half-inhibitory concentration (IC50) in series [12] is 75.2 µM; in series [13], over 100 µM; in series [14], over 100 µM; in series [15] it was over 100 µM; in [16], 1.87 µM. The IC50 at 72 h in series [17] and in series [18] was over 100 µM each time.

In the case of `Cc1ccc(N2CCCC2)c(C(=O)Nc2ccc(CNC(=O)OCc3cccnc3)cc2)c1`, the IC50 in series [12] is 65.3 µM; in series [13], 24.7 µM; in [14], over 100 µM; in series [15] it was 19.1 µM; in series [16], 1.65 µM. The IC50 at 72 h in series [17] was over 100 µM; in series [18], 40.6 µM.

Take `O=C(NCc1ccc(NC(=O)c2cc(Br)ccc2N2CCCC2)cc1)OCc1cccnc1`: the 50% inhibitory concentration (IC50) in series [12] is over 100 µM; in series [13], over 100 µM; in [14], over 100 µM; in series [15], 45.7 µM; in series [16], 0.64 µM. Further, the half-inhibitory concentration (IC50) at 72 h in series [17] and in series [18] was over 100 µM each time.

As to `O=C(NCc1ccc(NC(=O)c2cccc(F)c2N2CCCC2)cc1)OCc1cccnc1`, the concentration for half-maximal inhibition (IC50) in series [12] is over 100 µM; in [13] it was over 100 µM; in series [14], over 100 µM; in [15], over 100 µM; in series [16], 2.02 µM. The IC50 at 72 h in [17] and in series [18] was over 100 µM each time.

As to `COc1ccc(N2CCCC2)c(C(=O)Nc2ccc(CNC(=O)OCc3cccnc3)cc2)c1`, the half-maximal inhibitory concentration (IC50) in series [12] was 47.2 µM; in series [13], 25.6 µM; in series [14], over 100 µM; in series [15], 85.7 µM; in [16], 138 µM. Besides, the IC50 at 72 h was over 100 µM in series [17] and 35.6 µM in series [18].

Take `Nc1ccccc1NC(=O)c1ccc(CNC(=O)OCc2cccnc2)cc1` [ENTINOSTAT]: the IC50 is over 200 µM in series [12]; 26.7 µM in series [13]; 27 µM in series [14]; 58.6 µM in [15]; 18.5 µM in [16]. The IC50 at 72 h in [17] was 60.2 µM.

As for `O=C(NCc1ccc(NC(=O)c2cc(Cl)ccc2N2CCCC2)cc1)OCc1cccnc1`, the half-inhibitory concentration (IC50) in [12] is over 100 µM; in [13] it was over 100 µM; in series [14], over 100 µM; in series [15], 55.5 µM; in series [16], 0.75 µM. In addition, the half-inhibitory concentration (IC50) at 72 h in series [17] and in series [18] was over 100 µM each time.

`C#Cc1cccc(C(=O)Nc2ccc(CNC(=O)OCc3cccnc3)cc2)c1` came in with an IC50 in [19] of over 100 µM.

For the compound `Cc1cccc(C(=O)Nc2ccc(CNC(=O)OCc3cccnc3)cc2)c1N1CCCC1`, the IC50 was over 100 µM in series [12]; over 100 µM in series [13]; over 100 µM in series [14]; over 100 µM in series [15]; 1.03 µM in [16]. Moreover, the half-maximal inhibitory concentration (IC50) at 72 h in series [17] and in series [18] was over 100 µM throughout.

The compound `C#Cc1ccc(N2CCCC2)c(C(=O)Nc2ccc(CNC(=O)OCc3cccnc3)cc2)c1` gave an IC50 in series [19] of 2.48 µM.

`O=c1[nH]cc(F)c(=O)[nH]1` [FLUOROURACIL]: the IC50 in [12] amounted to 69.8 µM; in [13], 23.2 µM; in series [14], 14 µM; in series [15] it was 62.5 µM; in series [16], 27.5 µM. This compound also returned an IC50 at 72 h in series [17] of 38.5 µM.

As for `O=C(NCc1ccc(NC(=O)c2cc(-c3ccccc3)ccc2N2CCCC2)cc1)OCc1cccnc1`, the IC50 in series [12] was over 100 µM; in series [13], over 100 µM; in series [14], over 100 µM; in series [15], 10.5 µM; in series [16] it was 4.34 µM. Also, the IC50 at 72 h in [17] and in [18] was over 100 µM throughout.

Values taken from ChEMBL document CHEMBL5143508, “Design, synthesis and biological evaluation of novel o-aminobenzamide derivatives as potential anti-gastric cancer agents in vitro and in vivo” (Eur J Med Chem, 2022).
